Assay results: US12384786B2 (MINGHUI PHARMACEUTICAL (SHANGHAI) LIMITED, priority 2019, dated 2025)
Read-outs that look alike come from different tables or passages of the source.

How the values were obtained:
[1] = tested on: TMD8 cells (Human diffuse large B lymphoma cells); assay: CellTiter-Glo TMD8 inhibitory activity; assay type: cell-based; settings: cultured in vitro
Description: CellTiter-Glo kit was used to test the TMD8 inhibitory activity of compounds of examples on Human diffuse large B lymphoma cells cultured in vitro. IC50 values were shown below.

[2] = target: Full-length human BTK (C481S) (Homo sapiens (Human), UniProt Q06187, C481S); assay: BTK (C481S) inhibitory activity, Reaction Biology Corporation kinase assay; settings: for inhibition at 0.005 µM: read-out: BTK(C481S) inhibitory rate(%)
Full-length human BTK = Full-length human BTK (Homo sapiens (Human), UniProt Q06187); assay: BTK inhibitory activity, Reaction Biology Corporation kinase assay; settings: for inhibition at 0.005 µM: read-out: BTK inhibitory rate(%)
[3] = IC50(nM) BTK(C481S), (d) ATP concentration 50 μM
[4] = IC50(nM) BTK, (d) ATP concentration 50 μM
[5] = read-out: IC50(nM) BTK, (a) ATP concentration 30 μM
[6] = read-out: IC50(nM) BTK(C481S), (d) ATP concentration 50 μM
[7] = read-out: IC50(nM) BTK, (d) ATP concentration 50 μM

Chain of Full-length human BTK (Q06187 whole entry): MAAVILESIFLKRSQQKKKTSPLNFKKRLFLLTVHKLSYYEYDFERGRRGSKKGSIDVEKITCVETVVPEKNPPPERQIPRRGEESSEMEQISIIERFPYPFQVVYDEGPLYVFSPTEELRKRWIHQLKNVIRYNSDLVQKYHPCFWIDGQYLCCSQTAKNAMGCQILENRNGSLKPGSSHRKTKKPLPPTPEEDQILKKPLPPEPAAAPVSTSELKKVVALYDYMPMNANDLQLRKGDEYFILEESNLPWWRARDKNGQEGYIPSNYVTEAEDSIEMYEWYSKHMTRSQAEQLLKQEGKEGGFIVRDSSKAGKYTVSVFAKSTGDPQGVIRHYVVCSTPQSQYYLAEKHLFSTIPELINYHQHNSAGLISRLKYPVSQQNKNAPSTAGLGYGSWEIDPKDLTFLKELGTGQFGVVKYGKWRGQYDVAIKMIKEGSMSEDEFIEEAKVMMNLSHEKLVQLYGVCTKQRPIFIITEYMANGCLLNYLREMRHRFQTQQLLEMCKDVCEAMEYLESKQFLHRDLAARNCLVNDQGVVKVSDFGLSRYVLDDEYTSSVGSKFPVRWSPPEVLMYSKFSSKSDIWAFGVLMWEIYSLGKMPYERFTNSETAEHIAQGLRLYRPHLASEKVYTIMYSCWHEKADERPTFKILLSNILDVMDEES
Chain of Full-length human BTK (C481S) (Q06187 whole entry C481S): as the sequence (Q06187 whole entry) above, with C481S counted along it

Nc1ncnc2c1c(-c1ccc(Oc3ccccc3)cc1)nn2C1CCC(O)(C(F)(F)F)C1 (centres unmarked) [Example 7, 3-(4-amino-3-(4-phenoxyphenyl)-1H-pyrazolo[3,4-d]pyrimidin-1-yl)-1-(trifluoromethyl) Cyclopentanol] was tested, and the IC50 [1] was 504 nM.

CC1(O)CCC(n2nc(-c3ccc(Oc4ccccc4)cc3)c3c(N)ncnc32)C1 (centres unmarked) [Example 6, 3-(4-amino-3-(4-phenoxyphenyl)-1H-pyrazolo[3,4-d]pyrimidin-1-yl)-1-methylcyclopentanol] gave an inhibition at 0.005 µM [2] of 63%, an inhibition at 0.005 µM (Full-length human BTK) of 70% and an IC50 [1] of 17 nM.

Molecule COc1cccc(Oc2ccc(-c3nn(C4CCC(CO)OC4)c4ncnc(N)c34)cc2)c1F (single isomer, unassigned) [Example 30 Peak1-2, (5-(4-amino-3-(4-(2-fluoro-3-methoxyphenoxy)phenyl)-1H-pyrazolo[3,4-d]pyrimidin-1-yl)tetrahydro-2 h-pyran-2-yl)methanol] has an IC50 [2, 3] of 6.7 nM and an IC50 (Full-length human BTK; [4]) of 8.5 nM.

Molecule Nc1ncnc2c1c(-c1ccc(Oc3c(F)cccc3F)cc1)nn2[C@@H]1CCC[C@@H](O)C1 [Example 18, (1R, 3R)-3-(4-amino-3-(4-(2,6-difluorophenoxy)phenyl)-1H-pyrazolo[3,4-d]pyrimidin-1-yl)cyclohex-1-ol] has an IC50 (Full-length human BTK; [5]) of 49.1 nM and an IC50 [1] of 183 nM.

In the case of Nc1ncnc2c1c(-c1ccc(Oc3cccc(O)c3F)cc1)nn2[C@@H]1CCC[C@@H](O)C1 [Example 33, (1R,3R)-3-(4-(4-amino-1-(3-hydroxycyclohexyl)-1H-pyrazolo[3,4-d]pyrimidin-3-yl)phenoxy)-2-fluorophenol], the IC50 (Full-length human BTK; [5]) is reported as 19.2 nM.

Work on COc1cccc(Oc2ccc(-c3nn(C4CCC(CO)OC4)c4ncnc(N)c34)cc2)c1F (single isomer, unassigned) [Example 30 Peak2-1, (5-(4-amino-3-(4-(2-fluoro-3-methoxyphenoxy)phenyl)-1H-pyrazolo[3,4-d]pyrimidin-1-yl)tetrahydro-2 h-pyran-2-yl)methanol] yielded an IC50 [2, 3] of 1.1 nM and an IC50 (Full-length human BTK; [4]) of 1.8 nM.

COc1cccc(Oc2ccc(-c3nn([C@H]4CC[C@H](O)CC4)c4ncnc(N)c34)cc2)c1F [Example 21, (1r, 4r)-4-(4-amino-3-(4-(2-fluoro-3-methoxyphenoxy)phenyl)-1H-pyrazolo[3,4-d]pyrimidin-1-yl)cyclohex-1-ol] showed an IC50 (Full-length human BTK; [5]) of 16 nM.

Nc1ncnc2c1c(-c1ccc(Oc3ccccc3)cc1)nn2[C@@H]1CCC[C@H](O)C1 [Example 2, (1S, 3R)-3-(4-amino-3-(4-phenoxyphenyl)-1H-pyrazolo[3,4-d]pyrimidin-1-yl) cyclohex-1-ol] gave an inhibition at 0.005 µM (Full-length human BTK) of 50%.

Molecule COc1cccc(Oc2ccc(-c3nn(C4CCC(CO)OC4)c4ncnc(N)c34)cc2)c1F (single isomer, unassigned) [Example 30 Peak1-1, (5-(4-amino-3-(4-(2-fluoro-3-methoxyphenoxy)phenyl)-1H-pyrazolo[3,4-d]pyrimidin-1-yl)tetrahydro-2 h-pyran-2-yl)methanol] has an IC50 [2, 3] of 3.7 nM and an IC50 (Full-length human BTK; [4]) of 3.8 nM.

C[C@]1(O)CCC[C@@H](n2nc(-c3ccc(Oc4ccccc4)cc3)c3c(N)ncnc32)C1 [Example 3A, (1s, 3R)-3-(4-amino-3-(4-phenoxyphenyl)-1H-pyrazolo[3,4-d]pyrimidin-1-yl)-1-methylcyclohexane-1-ol] showed an IC50 [1] of 208 nM.

With COc1cccc(Oc2ccc(-c3nn(C4CCC(CO)OC4)c4ncnc(N)c34)cc2)c1F (single isomer, unassigned) [Example 30 Peak2-2, (5-(4-amino-3-(4-(2-fluoro-3-methoxyphenoxy)phenyl)-1H-pyrazolo[3,4-d]pyrimidin-1-yl)tetrahydro-2 h-pyran-2-yl)methanol] the IC50 [2, 3] was 2.8 nM and the IC50 (Full-length human BTK; [4]) was 5 nM.

Work on C[C@]1(O)CC[C@H](n2nc(-c3ccc(Oc4ccccc4)cc3)c3c(N)ncnc32)CC1 [Example 9B, (1r,4r)-4 (4-amino-3-(4-phenoxyphenyl)-1H-pyrazolo[3,4-d]pyrimidin-1-yl]-1-methylcyclohexane-1-ol] yielded an inhibition at 0.005 µM [2] of 63%, an inhibition at 0.005 µM (Full-length human BTK) of 46% and an IC50 [1] of 37 nM.

Work on COc1cccc(Oc2ccc(-c3nn(C4CCCCC4)c4ncnc(N)c34)cc2)c1F [Example 29, 1-cyclohexyl-3-(4-(2-fluoro-3-methoxyphenoxy)phenyl)-1H-pyrazolo[3,4-d]pyrimidin-4-amine, reference compound] yielded an IC50 (Full-length human BTK; [5]) of 64.1 nM.

Nc1ncnc2c1c(-c1ccc(Oc3cccc(F)c3)cc1)nn2C1CCC(O)C1 (centres unmarked) [Example 25, 3-(4-amino-3-(4-(3-fluorophenoxy)phenyl)-1H-pyrazolo[3,4-d]pyrimidin-1-yl) cyclopentane-1-ol] gave an IC50 (Full-length human BTK; [5]) of 26.9 nM.

Nc1ncnc2c1c(-c1ccc(Oc3cccc(F)c3)cc1)nn2[C@@H]1CCC[C@@H](O)C1 [Example 15] was tested, and the IC50 ([2]; read-out: IC50(nM) BTK(C481S), (c) ATP concentration 10 μM) was 1.7 nM, the inhibition at 0.005 µM (Full-length human BTK) was 55% and the IC50 (Full-length human BTK; read-out: IC50(nM) BTK, (c) ATP concentration 10 μM) was 3.8 nM.

Molecule COc1cccc(Oc2ccc(-c3nn([C@H]4CCC[C@H](O)C4)c4ncnc(N)c34)cc2)c1F [Example 32, (1S,3S)-3-(4-amino-3-(4-(2-fluoro-3-methoxyphenoxy)phenyl)-1H-pyrazolin[3,4-d]pyrimidin-1-yl)cyclohexanol] has an IC50 [2, 6] of 0.9 nM and an IC50 (Full-length human BTK; [7]) of 2.6 nM.

Nc1ncnc2c1c(-c1ccc(Oc3ccccc3)cc1)nn2C1CCC(O)(C2CC2)CC1 (centres unmarked) [Example 10, 4-(4-amino-3-(4-phenoxyphenyl)-1H-pyrazolo[3,4-d]pyrimidin-1-yl]-1-cyclopropylcyclohexane-1-ol] showed an inhibition at 0.005 µM [2] of 72%, an inhibition at 0.005 µM (Full-length human BTK) of 63% and an IC50 [1] of 145 nM.

Molecule Nc1ncnc2c1c(-c1ccc(Oc3ccccc3F)cc1)nn2[C@@H]1CCC[C@@H](O)C1 [Example 17, (1R,3R)-3-(4-amino-3-(4-(2-fluorophenoxy)phenyl)-1H-pyrazolo[3,4-d]pyrimidin-1-yl)cyclohex-1-ol] has an IC50 (Full-length human BTK; [5]) of 24.1 nM and an IC50 [1] of 33 nM.

Molecule C[C@@]1(O)CCC[C@@H](n2nc(-c3ccc(Oc4ccccc4)cc3)c3c(N)ncnc32)C1 [Example 3B, (1R, 3R)-3-(4-amino-3-(4-phenoxyphenyl)-1H-pyrazolo[3,4-d]pyrimidin-1-yl)-1-methylcyclohexane-1-ol] has an IC50 [1] of 200 nM.

Molecule COc1cccc(Oc2ccc(-c3nn([C@@H]4CCC[C@@H](O)C4)c4ncnc(N)c34)cc2)c1F [Example 19, (1R, 3R)-3-(4-amino-3-(4-(2-fluoro-3-methoxyphenoxy)phenyl)-1H-pyrazolo[3,4-d]pyrimidin-1-yl)cyclohex-1-ol] has an IC50 (Full-length human BTK; [5]) of 24.9 nM and an IC50 [1] of 0.5 nM.

COc1cccc(Oc2ccc(-c3nn(C4CCC(O)C(O)C4)c4ncnc(N)c34)cc2)c1F (centres unmarked) [Example 28, 4-(4-amino-3-(4-(2-fluoro-3-methoxyphenoxy)phenyl)-1H-pyrazolo[3,4-d]pyrimidin-1-yl)cyclohexane-1,2-diol] gave an IC50 [2, 6] of 0.6 nM and an IC50 (Full-length human BTK; [7]) of 1.7 nM.

COc1cccc(Oc2ccc(-c3nn(C4CCC(O)C4)c4ncnc(N)c34)cc2)c1F (centres unmarked) [Example 22, 3-(4-amino-3-(4-(2-fluoro-3-methoxyphenoxy)phenyl)-1H-pyrazolo[3,4-d]pyrimidin-1-yl)cyclopentane-1-ol] was tested, and the IC50 [1] was 8 nM.

Nc1ncnc2c1c(-c1ccc(Oc3ccccc3)cc1F)nn2[C@@H]1CCC[C@@H](O)C1 [Example 16, (1R, 3R)-3-(4-amino-3-(2-fluoro-4-phenoxyphenyl)-1H-pyrazolo[3,4-d]pyrimidin-1-yl)cyclohex-1-ol] was tested, and the IC50 (Full-length human BTK; [5]) was 18.8 nM and the IC50 [1] was 41 nM.
